Experimental data taken from US11479804B1 (priority 2010, dated 2022).
“Also recorded” adds a separate entry of the source.

Assays:
acetylcholinesterase [1] = target: T1, acetylcholinesterase (Homo sapiens, UniProt P22303); assay: Acetylcholinesterase assay with malaoxon in complex samples (apple juice, whole milk, soil) using GEMBE; type: biochemical; conditions: for LOD in filtered apple juice: filtered apple juice (10× dilution); for LOD in soil: soil added as a slurry to the sample reservoir; for LOD in whole milk: whole milk (10× dilution)
Procedure: (§1) Assay Conditions in Apple Juice. A running buffer was prepared consisting of 4-(2-hydroxyethyl)-1-piperazineethanesulfonic acid, i.e. HEPES, at a concentration of ˜100 mM and 2-[Bis(2-hydroxyethyl)amino]-2-(hydroxymethyl)-1,3-propanediol, i.e. BIS-TRIS, at a concentration of ˜100 mM. The running buffer was prepared at pH ˜7.1. EOTrol™ HR (Target Discovery, Palo Alto, Calif.) was added to the run buffer as a dynamic coating to reverse the direction of EOF at a concentration of 1% (by volume).
(§2) Prior to reaction, the surface of a polyoxymethylene sample reservoir (Delrin, DuPont, Wilmington, Del.) was passivated with bovine serum albumin (˜2 mg/mL). A sample containing malaoxon (˜1 mM) in filtered apple juice (10× dilution) was added to the sample reservoir. Acetylcholine (˜500 μM) and acetylcholinesterase (˜10.4 nM) were added to the sample reservoir and were allowed to incubate for ˜5 min.
as §1, with “Whole Milk.” for “Apple Juice.”
as §2, with “(2” for “(˜2”, “whole milk (4% milk fat, Giant Food) at a dilution of 10×” for “filtered apple juice (10× dilution)”, “minutes.” for “min.”
as §1, with “Soil.” for “Apple Juice.”
Prior to reaction, the surface of a polyoxymethylene sample reservoir (Delrin, DuPont, Wilmington, Del.) was passivated with bovine serum albumin (2 mg/mL). A sample containing malaoxon (˜1 mM) in soil was added as a slurry to the sample reservoir. Acetylcholine (˜500 μM) and acetylcholinesterase (˜10.4 nM) were added to the sample reservoir and were allowed to incubate for ˜5 min.
Separation of Acetylcholine and Choline Using Gradient Elution Moving Boundary Electrophoresis. The reaction mixtures were separately introduced into the inlet end of the separation channel of a GEMBE device, wherein a voltage of ˜−2000V was applied on the waste chamber. During the GEMBE separation, the pressure applied to the run buffer reservoir was varied from about 6,000 Pa to about −8,000 Pa at a rate of −300 Pa/s. The concentration of choline was detected and quantified.

acetylcholinesterase [2] = target: T1, acetylcholinesterase; type: biochemical
[3] = acetylcholine ~500 μM, acetylcholinesterase ~10.4 nM

T1 sequence (P22303 32-614): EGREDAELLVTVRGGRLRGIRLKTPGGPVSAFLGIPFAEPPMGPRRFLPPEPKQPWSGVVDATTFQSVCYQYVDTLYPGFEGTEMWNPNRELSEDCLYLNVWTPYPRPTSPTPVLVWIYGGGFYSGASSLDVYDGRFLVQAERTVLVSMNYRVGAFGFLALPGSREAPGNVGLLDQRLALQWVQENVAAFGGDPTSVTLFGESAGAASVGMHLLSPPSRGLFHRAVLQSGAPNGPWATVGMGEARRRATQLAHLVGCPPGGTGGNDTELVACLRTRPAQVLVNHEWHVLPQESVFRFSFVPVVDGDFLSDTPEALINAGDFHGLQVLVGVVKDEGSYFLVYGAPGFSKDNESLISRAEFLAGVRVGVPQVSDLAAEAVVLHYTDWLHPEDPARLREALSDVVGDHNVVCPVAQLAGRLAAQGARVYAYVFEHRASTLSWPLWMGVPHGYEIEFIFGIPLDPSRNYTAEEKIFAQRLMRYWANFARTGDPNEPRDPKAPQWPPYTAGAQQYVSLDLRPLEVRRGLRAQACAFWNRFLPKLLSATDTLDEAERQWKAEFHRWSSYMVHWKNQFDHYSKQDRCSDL

CCOC(=O)CC(SP(=O)(OC)OC)C(=O)OCC (stereo not drawn) [malaoxon]
LOD in filtered apple juice (acetylcholinesterase [1]): 85.6 ppb | LOD in filtered apple juice (acetylcholinesterase [1]; [3]): ~2.72e-07 M | LOD in soil (acetylcholinesterase [1]): 1.5 ppm | LOD in soil (acetylcholinesterase [1]; [3]): ~4.93e-06 M | LOD in whole milk (acetylcholinesterase [1]): 82.0 ppb | LOD in whole milk (acetylcholinesterase [1]; [3]): ~2.61e-07 M | concentration of choline formed (inhibition of acetylcholinesterase) (acetylcholinesterase [2]): a decrease in the concentration of choline was observed; also recorded: the concentration of choline does not increase over time | limit of detection (LOD) (acetylcholinesterase [2]): 87.7 ppb | limit of detection (LOD) from conversion rate of acetylcholine to choline (acetylcholinesterase [2]): ~279 nM
